Measurements reported in the kinase profiling compilation of Christmann-Franck et al. (2016).

Experiments:
Experiment in all cases: Caliper, Mobility shift assay off-chip
[1] = test system: ABL1 (human), P00519 [H396P]
[2] = test system: ABL1 (human), P00519 [M351T]
[3] = test system: ABL1 (human), P00519 [Q252H]
ABL2 (human) = ABL2 (human) (UniProt P42684)
ACVR1B (human) = ACVR1B (human) (UniProt P36896)
AURKA (human) = AURKA (human) (UniProt O14965)
BMX (human) = BMX (human) (UniProt P51813)
[4] = test system: BTK (human), Q06187 [R28H]
CAMK1D (human) = CAMK1D (human) (UniProt Q8IU85)
CDK9 CCNT1 (human) = CDK9 CCNT1 (human) (UniProt O60563+P50750)
[5] = test system: CHEK2 (human), O96017 [I157T]
CLK3 (human) = CLK3 (human) (UniProt P49761)
Sequence of CLK3 (human) (P49761 whole entry, looked up): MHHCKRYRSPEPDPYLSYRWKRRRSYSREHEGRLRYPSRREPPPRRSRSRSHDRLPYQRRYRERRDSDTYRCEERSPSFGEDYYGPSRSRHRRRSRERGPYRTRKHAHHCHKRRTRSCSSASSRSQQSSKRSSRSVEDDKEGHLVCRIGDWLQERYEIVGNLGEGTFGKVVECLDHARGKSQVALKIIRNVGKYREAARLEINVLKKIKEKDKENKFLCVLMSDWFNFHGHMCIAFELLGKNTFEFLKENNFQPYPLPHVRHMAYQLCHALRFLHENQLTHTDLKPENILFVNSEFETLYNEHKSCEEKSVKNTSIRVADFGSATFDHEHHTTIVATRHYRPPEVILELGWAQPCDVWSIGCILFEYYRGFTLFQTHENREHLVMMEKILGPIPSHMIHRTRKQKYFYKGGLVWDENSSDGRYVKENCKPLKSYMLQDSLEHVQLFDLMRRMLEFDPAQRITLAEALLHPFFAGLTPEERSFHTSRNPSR

CSNK1G3 (human) = CSNK1G3 (human) (UniProt Q9Y6M4)
DAPK3 (human) = DAPK3 (human) (UniProt O43293)
EPHA8 (human) = EPHA8 (human) (UniProt P29322)
[6] = test system: FGFR1 (human), P11362 [V561M]
MAP2K1 (human) = MAP2K1 (human) (UniProt Q02750)
MINK1 (human) = MINK1 (human) (UniProt Q8N4C8)
MST1R (human) = MST1R (human) (UniProt Q04912)
Sequence of MST1R (human) (Q04912 whole entry, looked up): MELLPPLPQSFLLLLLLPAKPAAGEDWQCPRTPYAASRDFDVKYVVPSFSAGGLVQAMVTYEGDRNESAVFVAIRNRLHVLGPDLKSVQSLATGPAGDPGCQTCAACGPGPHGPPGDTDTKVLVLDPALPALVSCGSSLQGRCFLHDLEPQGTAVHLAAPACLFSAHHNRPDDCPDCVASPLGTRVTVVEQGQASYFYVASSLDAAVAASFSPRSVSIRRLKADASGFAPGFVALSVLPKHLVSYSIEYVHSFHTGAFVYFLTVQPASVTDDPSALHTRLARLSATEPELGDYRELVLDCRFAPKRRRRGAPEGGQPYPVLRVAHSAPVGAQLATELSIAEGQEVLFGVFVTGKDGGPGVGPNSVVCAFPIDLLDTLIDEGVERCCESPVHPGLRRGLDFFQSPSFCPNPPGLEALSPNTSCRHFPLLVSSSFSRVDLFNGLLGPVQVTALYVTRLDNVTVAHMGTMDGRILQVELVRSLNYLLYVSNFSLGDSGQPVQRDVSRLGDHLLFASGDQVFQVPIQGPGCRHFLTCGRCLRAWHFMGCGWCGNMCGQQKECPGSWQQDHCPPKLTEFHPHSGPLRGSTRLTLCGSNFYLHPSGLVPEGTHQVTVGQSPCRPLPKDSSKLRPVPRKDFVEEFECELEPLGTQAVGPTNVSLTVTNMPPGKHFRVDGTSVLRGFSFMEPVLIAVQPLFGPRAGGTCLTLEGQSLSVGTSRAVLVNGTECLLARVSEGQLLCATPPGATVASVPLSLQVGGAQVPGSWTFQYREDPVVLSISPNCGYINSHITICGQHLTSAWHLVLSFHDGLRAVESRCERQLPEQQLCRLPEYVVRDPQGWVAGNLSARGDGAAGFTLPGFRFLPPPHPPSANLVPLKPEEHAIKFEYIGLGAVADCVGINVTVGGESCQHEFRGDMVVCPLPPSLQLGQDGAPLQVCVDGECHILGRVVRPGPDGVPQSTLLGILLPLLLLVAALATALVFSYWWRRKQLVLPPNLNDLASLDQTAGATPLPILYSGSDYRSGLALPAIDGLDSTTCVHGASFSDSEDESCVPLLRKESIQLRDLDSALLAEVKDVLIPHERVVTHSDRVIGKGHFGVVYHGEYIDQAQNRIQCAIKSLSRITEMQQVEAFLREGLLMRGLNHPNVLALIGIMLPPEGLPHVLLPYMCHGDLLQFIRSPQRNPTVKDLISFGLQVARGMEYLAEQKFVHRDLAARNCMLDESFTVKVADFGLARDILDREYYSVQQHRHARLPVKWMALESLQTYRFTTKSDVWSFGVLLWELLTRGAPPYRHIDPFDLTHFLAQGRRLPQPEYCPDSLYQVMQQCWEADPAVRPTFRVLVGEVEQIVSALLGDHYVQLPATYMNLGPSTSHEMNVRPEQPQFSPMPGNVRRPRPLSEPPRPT

MTOR (human) = MTOR (human) (UniProt P42345)
MTOR FKBP1A (human) = MTOR FKBP1A (human) (UniProt P42345+P62942)
Sequence of MTOR FKBP1A (human) (P62942 whole entry, looked up, other chains not shown): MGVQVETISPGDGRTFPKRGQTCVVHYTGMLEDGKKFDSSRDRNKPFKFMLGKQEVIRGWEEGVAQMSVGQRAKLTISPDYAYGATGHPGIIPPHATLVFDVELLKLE

NEK11 (human) = NEK11 (human) (UniProt Q8NG66)
NEK7 (human) = NEK7 (human) (UniProt Q8TDX7)
PLK1 (human) = PLK1 (human) (UniProt P53350)
PRKCD (human) = PRKCD (human) (UniProt Q05655)
PRKCH (human) = PRKCH (human) (UniProt P24723)
Sequence of PRKCH (human) (P24723 whole entry, looked up): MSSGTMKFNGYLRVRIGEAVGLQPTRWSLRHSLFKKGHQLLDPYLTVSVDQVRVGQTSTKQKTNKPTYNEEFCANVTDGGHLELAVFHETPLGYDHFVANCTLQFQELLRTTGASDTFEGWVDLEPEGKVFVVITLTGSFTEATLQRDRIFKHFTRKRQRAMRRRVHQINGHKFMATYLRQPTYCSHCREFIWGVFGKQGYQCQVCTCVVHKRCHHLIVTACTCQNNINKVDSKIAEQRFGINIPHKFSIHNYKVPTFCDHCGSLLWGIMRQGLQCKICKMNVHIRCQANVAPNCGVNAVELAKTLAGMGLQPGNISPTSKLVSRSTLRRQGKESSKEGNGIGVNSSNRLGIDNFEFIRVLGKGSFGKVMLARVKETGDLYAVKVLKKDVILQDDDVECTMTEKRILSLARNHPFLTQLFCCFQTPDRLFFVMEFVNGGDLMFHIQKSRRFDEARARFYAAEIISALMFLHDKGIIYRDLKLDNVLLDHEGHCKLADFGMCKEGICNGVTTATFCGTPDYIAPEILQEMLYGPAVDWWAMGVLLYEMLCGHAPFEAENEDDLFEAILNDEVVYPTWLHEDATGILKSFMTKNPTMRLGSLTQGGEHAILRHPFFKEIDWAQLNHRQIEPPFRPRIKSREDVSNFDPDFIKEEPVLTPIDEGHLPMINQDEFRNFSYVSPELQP

[7] = test system: RET (human), P07949 [V804M]
SGK3 (human) = SGK3 (human) (UniProt Q96BR1)
[8] = test system: SRC (human), P12931 [T341M]
STK10 (human) = STK10 (human) (UniProt O94804)
STK17A (human) = STK17A (human) (UniProt Q9UEE5)
Sequence of STK17A (human) (Q9UEE5 whole entry, looked up): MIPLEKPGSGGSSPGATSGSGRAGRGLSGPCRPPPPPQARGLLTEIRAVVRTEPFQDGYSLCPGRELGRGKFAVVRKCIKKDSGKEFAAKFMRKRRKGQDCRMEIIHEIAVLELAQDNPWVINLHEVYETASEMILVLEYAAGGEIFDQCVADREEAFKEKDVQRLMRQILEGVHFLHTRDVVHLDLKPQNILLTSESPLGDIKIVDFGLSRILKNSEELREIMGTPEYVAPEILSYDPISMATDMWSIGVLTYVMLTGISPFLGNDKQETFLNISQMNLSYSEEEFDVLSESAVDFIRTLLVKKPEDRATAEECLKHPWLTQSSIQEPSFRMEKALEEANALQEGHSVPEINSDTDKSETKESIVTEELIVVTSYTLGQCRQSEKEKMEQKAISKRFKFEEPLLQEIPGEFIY

TAOK2 (human) = TAOK2 (human) (UniProt Q9UL54)
Sequence of TAOK2 (human) (Q9UL54 whole entry, looked up): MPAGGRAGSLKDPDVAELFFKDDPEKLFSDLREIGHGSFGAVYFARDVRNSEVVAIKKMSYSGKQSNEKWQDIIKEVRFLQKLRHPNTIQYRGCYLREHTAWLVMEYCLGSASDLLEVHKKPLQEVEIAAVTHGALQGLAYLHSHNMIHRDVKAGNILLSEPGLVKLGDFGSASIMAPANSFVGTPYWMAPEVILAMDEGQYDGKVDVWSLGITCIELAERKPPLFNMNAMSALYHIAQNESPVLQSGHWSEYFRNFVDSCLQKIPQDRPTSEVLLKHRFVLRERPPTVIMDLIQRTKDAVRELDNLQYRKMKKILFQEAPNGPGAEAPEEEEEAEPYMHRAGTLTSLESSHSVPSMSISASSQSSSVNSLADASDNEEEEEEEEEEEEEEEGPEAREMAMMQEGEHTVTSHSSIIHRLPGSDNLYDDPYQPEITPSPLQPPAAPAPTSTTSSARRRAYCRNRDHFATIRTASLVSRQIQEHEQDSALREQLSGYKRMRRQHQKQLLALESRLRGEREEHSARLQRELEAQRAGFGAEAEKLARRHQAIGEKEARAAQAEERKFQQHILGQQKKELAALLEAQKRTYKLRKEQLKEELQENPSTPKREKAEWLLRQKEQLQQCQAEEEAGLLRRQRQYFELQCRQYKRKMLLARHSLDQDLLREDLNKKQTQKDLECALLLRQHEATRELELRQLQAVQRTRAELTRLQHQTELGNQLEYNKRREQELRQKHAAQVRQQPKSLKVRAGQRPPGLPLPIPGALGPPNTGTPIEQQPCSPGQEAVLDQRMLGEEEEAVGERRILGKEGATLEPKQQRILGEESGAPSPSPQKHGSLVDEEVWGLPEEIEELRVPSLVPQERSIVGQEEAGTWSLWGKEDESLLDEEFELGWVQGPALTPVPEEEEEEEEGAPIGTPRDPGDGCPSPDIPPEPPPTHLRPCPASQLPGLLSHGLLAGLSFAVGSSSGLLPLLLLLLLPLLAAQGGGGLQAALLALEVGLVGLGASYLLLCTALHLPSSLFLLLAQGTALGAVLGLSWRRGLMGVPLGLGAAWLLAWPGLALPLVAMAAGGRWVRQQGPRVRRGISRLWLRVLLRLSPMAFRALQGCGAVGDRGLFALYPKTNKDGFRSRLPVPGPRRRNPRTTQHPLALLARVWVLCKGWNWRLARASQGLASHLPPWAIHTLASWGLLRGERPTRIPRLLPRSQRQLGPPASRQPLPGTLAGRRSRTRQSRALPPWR

[9] = test system: TEK (human), Q02763 [R849W]
[10] = test system: TEK (human), Q02763 [Y897S]
ULK2 (human) = ULK2 (human) (UniProt Q8IYT8)
ULK3 (human) = ULK3 (human) (UniProt Q6PHR2)
WNK3 (human) = WNK3 (human) (UniProt Q9BYP7)
MAPK1 (mouse) = conditions: compound 10.0 µM; accession and sequence are those of the human protein
PRKACA (cow) = conditions: compound 10.0 µM; accession and sequence are those of the human protein
ROCK2 (rat) = conditions: compound 10.0 µM; accession and sequence are those of the human protein
RPS6KA1 KD1 KD2 (rat) = conditions: compound 10.0 µM; accession and sequence are those of the human protein

Sequence of BMX (human) (P51813 whole entry, looked up): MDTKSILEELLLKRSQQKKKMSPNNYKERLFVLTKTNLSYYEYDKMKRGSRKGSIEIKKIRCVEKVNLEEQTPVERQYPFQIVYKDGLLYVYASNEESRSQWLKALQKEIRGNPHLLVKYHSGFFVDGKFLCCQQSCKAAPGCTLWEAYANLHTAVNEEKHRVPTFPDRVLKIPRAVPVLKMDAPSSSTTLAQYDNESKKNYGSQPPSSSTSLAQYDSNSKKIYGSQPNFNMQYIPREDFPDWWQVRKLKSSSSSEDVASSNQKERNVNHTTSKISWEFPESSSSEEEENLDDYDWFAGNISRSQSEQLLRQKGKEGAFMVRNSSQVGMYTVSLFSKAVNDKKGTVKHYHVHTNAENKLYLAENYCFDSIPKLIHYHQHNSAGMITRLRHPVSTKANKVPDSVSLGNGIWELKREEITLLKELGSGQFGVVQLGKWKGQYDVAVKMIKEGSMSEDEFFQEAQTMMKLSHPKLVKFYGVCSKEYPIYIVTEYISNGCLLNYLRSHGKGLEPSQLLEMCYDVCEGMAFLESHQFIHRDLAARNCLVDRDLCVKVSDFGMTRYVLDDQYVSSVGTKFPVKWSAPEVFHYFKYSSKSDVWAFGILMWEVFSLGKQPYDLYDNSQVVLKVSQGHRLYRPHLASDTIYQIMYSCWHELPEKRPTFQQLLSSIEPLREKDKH

O=C(N[C@@H](COc1ccc2[nH]c(=O)[nH]c2c1)c1ccccc1)c1cccn(Cc2ccc(F)c(F)c2)c1=O
residual activity ([1]; compound 10.0 µM): 114% | residual activity ([2]; compound 10.0 µM): 110% | residual activity ([3]; compound 10.0 µM): 69% | residual activity (ABL2 (human); compound 10.0 µM): 112% | residual activity (ACVR1B (human); compound 10.0 µM): 115% | residual activity (AURKA (human); compound 10.0 µM): 107% | residual activity (BMX (human); compound 10.0 µM): 139% | residual activity ([4]; compound 10.0 µM): 106% | residual activity (CAMK1D (human); compound 10.0 µM): 95% | residual activity (CDK9 CCNT1 (human); compound 10.0 µM): 102% | residual activity ([5]; compound 10.0 µM): 90% | residual activity (CLK3 (human); compound 10.0 µM): 115% | residual activity (CSNK1G3 (human); compound 10.0 µM): 99% | residual activity (DAPK3 (human); compound 10.0 µM): 121% | residual activity (EPHA8 (human); compound 10.0 µM): 107% | residual activity ([6]; compound 10.0 µM): 103% | residual activity (MAP2K1 (human); compound 10.0 µM): 102% | residual activity (MINK1 (human); compound 10.0 µM): 113% | residual activity (MST1R (human); compound 10.0 µM): 82% | residual activity (MTOR (human); compound 10.0 µM): 102% | residual activity (MTOR FKBP1A (human); compound 10.0 µM): 103% | residual activity (NEK11 (human); compound 10.0 µM): 126% | residual activity (NEK7 (human); compound 10.0 µM): 102% | residual activity (PLK1 (human); compound 10.0 µM): 116% | residual activity (PRKCD (human); compound 10.0 µM): 105% | residual activity (PRKCH (human); compound 10.0 µM): 96% | residual activity ([7]; compound 10.0 µM): 109% | residual activity (SGK3 (human); compound 10.0 µM): 117% | residual activity ([8]; compound 10.0 µM): 102% | residual activity (STK10 (human); compound 10.0 µM): 113% | residual activity (STK17A (human); compound 10.0 µM): 116% | residual activity (TAOK2 (human); compound 10.0 µM): 98% | residual activity ([9]; compound 10.0 µM): 104% | residual activity ([10]; compound 10.0 µM): 111% | residual activity (ULK2 (human); compound 10.0 µM): 110% | residual activity (ULK3 (human); compound 10.0 µM): 99% | residual activity (WNK3 (human); compound 10.0 µM): 99%

O=C(NCCCNc1nc(Nc2cccc(NC(=O)N3CCCC3)c2)ncc1I)c1cccs1
residual activity (ABL2 (human); compound 1.0 µM): 97% | residual activity (ACVR1B (human); compound 1.0 µM): 99% | residual activity (AURKA (human); compound 1.0 µM): 0% | residual activity (BMX (human); compound 1.0 µM): 94% | residual activity (CAMK1D (human); compound 1.0 µM): 86% | residual activity (CDK9 CCNT1 (human); compound 1.0 µM): 70% | residual activity ([5]; compound 1.0 µM): 71% | residual activity (CLK3 (human); compound 1.0 µM): 101% | residual activity (CSNK1G3 (human); compound 1.0 µM): 87% | residual activity (DAPK3 (human); compound 1.0 µM): 102% | residual activity (EPHA8 (human); compound 1.0 µM): 106% | residual activity ([6]; compound 1.0 µM): 9% | residual activity (MAP2K1 (human); compound 1.0 µM): 79% | residual activity (MINK1 (human); compound 1.0 µM): 97% | residual activity (MST1R (human); compound 1.0 µM): 105% | residual activity (NEK11 (human); compound 1.0 µM): 117% | residual activity (NEK7 (human); compound 1.0 µM): 109% | residual activity (PRKCD (human); compound 1.0 µM): 94% | residual activity (PRKCH (human); compound 1.0 µM): 95% | residual activity (SGK3 (human); compound 1.0 µM): 81% | residual activity (STK10 (human); compound 1.0 µM): 87% | residual activity (STK17A (human); compound 1.0 µM): 3% | residual activity (TAOK2 (human); compound 1.0 µM): 37% | residual activity (WNK3 (human); compound 1.0 µM): 108%

COc1ccc(C#Cc2ccc3ncc4ncn(-c5ccc(CCN)cc5)c4c3c2)cc1
residual activity (ABL2 (human); compound 10.0 µM): 78% | residual activity (ACVR1B (human); compound 10.0 µM): 18% | residual activity (AURKA (human); compound 10.0 µM): 8% | residual activity (BMX (human); compound 10.0 µM): 25% | residual activity (CAMK1D (human); compound 10.0 µM): 47% | residual activity (CDK9 CCNT1 (human); compound 10.0 µM): 126% | residual activity ([5]; compound 10.0 µM): 6% | residual activity (CLK3 (human); compound 10.0 µM): 65% | residual activity (CSNK1G3 (human); compound 10.0 µM): 2% | residual activity (DAPK3 (human); compound 10.0 µM): 34% | residual activity (EPHA8 (human); compound 10.0 µM): 91% | residual activity ([6]; compound 10.0 µM): 6% | residual activity (MAP2K1 (human); compound 10.0 µM): 43% | residual activity (MINK1 (human); compound 10.0 µM): 23% | residual activity (MST1R (human); compound 10.0 µM): 106% | residual activity (NEK11 (human); compound 10.0 µM): 51% | residual activity (NEK7 (human); compound 10.0 µM): 121% | residual activity (PRKCD (human); compound 10.0 µM): 134% | residual activity (PRKCH (human); compound 10.0 µM): 95% | residual activity (SGK3 (human); compound 10.0 µM): 12% | residual activity (STK10 (human); compound 10.0 µM): 18% | residual activity (STK17A (human); compound 10.0 µM): 15% | residual activity (TAOK2 (human); compound 10.0 µM): 81% | residual activity (WNK3 (human); compound 10.0 µM): 104%

C[C@@H](Nc1nc2c(C#CC3CC3)c[nH]c(=O)c2c2cc(-c3cn[nH]c3)ccc12)C(C)(C)C
residual activity ([1]; compound 1.0 µM): 49% | residual activity ([2]; compound 1.0 µM): 50% | residual activity ([3]; compound 1.0 µM): 54% | residual activity (ABL2 (human); compound 1.0 µM): 104% | residual activity (ACVR1B (human); compound 1.0 µM): 93% | residual activity (AURKA (human); compound 1.0 µM): 7% | residual activity (BMX (human); compound 1.0 µM): 89% | residual activity ([4]; compound 1.0 µM): 100% | residual activity (CAMK1D (human); compound 1.0 µM): 55% | residual activity (CDK9 CCNT1 (human); compound 1.0 µM): 96% | residual activity ([5]; compound 1.0 µM): 9% | residual activity (CLK3 (human); compound 1.0 µM): 108% | residual activity (CSNK1G3 (human); compound 1.0 µM): 113% | residual activity (DAPK3 (human); compound 1.0 µM): 57% | residual activity (EPHA8 (human); compound 1.0 µM): 108% | residual activity ([6]; compound 1.0 µM): 73% | residual activity (MAP2K1 (human); compound 1.0 µM): 96% | residual activity (MINK1 (human); compound 1.0 µM): 117% | residual activity (MST1R (human); compound 1.0 µM): 98% | residual activity (MTOR (human); compound 1.0 µM): 89% | residual activity (MTOR FKBP1A (human); compound 1.0 µM): 94% | residual activity (NEK11 (human); compound 1.0 µM): 116% | residual activity (NEK7 (human); compound 1.0 µM): 111% | residual activity (PLK1 (human); compound 1.0 µM): 81% | residual activity (PRKCD (human); compound 1.0 µM): 79% | residual activity (PRKCH (human); compound 1.0 µM): 109% | residual activity ([7]; compound 1.0 µM): 13% | residual activity (SGK3 (human); compound 1.0 µM): 104% | residual activity ([8]; compound 1.0 µM): 55% | residual activity (STK10 (human); compound 1.0 µM): 25% | residual activity (STK17A (human); compound 1.0 µM): 62% | residual activity (TAOK2 (human); compound 1.0 µM): 101% | residual activity ([9]; compound 1.0 µM): 74% | residual activity ([10]; compound 1.0 µM): 82% | residual activity (ULK2 (human); compound 1.0 µM): 30% | residual activity (ULK3 (human); compound 1.0 µM): 47% | residual activity (WNK3 (human); compound 1.0 µM): 73%

CC(C)(C)c1nc2c3ccc(F)cc3c3c(=O)[nH]ccc3c2[nH]1
residual activity (MAPK1 (mouse)): 11% | residual activity (PRKACA (cow)): 45% | residual activity (ROCK2 (rat)): 21% | residual activity (RPS6KA1 KD1 KD2 (rat)): 10%
